Tested on: 873145-292-R-J1-PDC complex spheroid viability
Test: Anticancer human tumor 873145-292-R-J1-PDC patient-derived renal clear cell carcinoma cell line growth inhibition [POLQ]
Settings: for IC50: curve of first compound; for viability, T/C: stronger effect = lower value
Experimental: Multicellular complex tumor spheroid response to Polymerase (POL) inhibitors (novobiocin, ART-558, RP6685) in combination with a variety of drugs and investigational agents in selected tumor cell lines
The POL inhibitors (novobiocin, ART-558, and RP6685) were evaluated both individually and in combination with standard of care and investigational anticancer small molecules within a complex spheroid model of solid tumors. . Complex spheroids include a stromal component modeled by human endothelial cells (HUVEC) and fibroblasts modeled by human mesenchymal stem cells (MSCs). The concentration ranges selected for each drug and investigational agent were based upon clinically achievable concentrations if the clinical Cmax of the agent was known.
Compounds. The drugs and investigational agents: novobiocin (NSC847541), ART-558 (NSC835418), RP-6685 (NSC848927), peposertib (NSC802822), ceralasertib (NSC780249), elimusertib (NSC800525), camonsertib (NSC841442), AZD-1390 (NSC803789), olaparib (NSC753686), talazoparib (NSC767125), rucaparib (NSC756644), sotorasib (NSC818433), MRTX-1133 (NSC836407), SN-38 (NSC673596), topotecan (NSC609699), epotoside (NSC141540), doxorubicin (NSC123127), gemcitabine (NSC613327), 5-fluorouracil (NSC19893), paclitaxel (NSC125973), vemurafenib (NSC761431), MSA-2 (NSC828583), SN-011 (NSC837082), adavosertib (NSC754352), prexasertib (NSC758257), carboplatin (NSC241240) and oxaliplatin (NSC266046), were obtained from the National Cancer Institute (NCI) Developmental Therapeutics Program Chemical Repository (21). The FDA-approved anticancer drug set is available from the Developmental Therapeutics Program at https://dtp.cancer.gov/organization/dscb/obtaining/. […] The stock solutions were prepared in dimethyl sulfoxide (DMSO, Sigma-Aldrich, St. Louis, MO, cat. D2650), except for the platinum compounds which were prepared in saline (Quality Biological, Gaithersburg, MD, cat. 114-055-101), at 800-fold the tested concentration and stored at -70 degrees C prior to their use. All drugs and investigational agents were tested over a range starting from a high concentration at or near the clinical Cmax and decreasing in half-log increments. If the clinical Cmax for an agent had not been determined, the highest concentration tested was 10 microM, except for SN-38, which was tested at a high concentration of 1 microM.
Cell Culture. All cells were maintained in an incubator at 37 degrees C and 5% CO2 with 95% humidity. The PDC lines were cultured according to standard operating procedures established by the NCI PDMR (https://pdmr.cancer.gov). Table 3 of the manuscript, lists the cell lines along with the number of the three cell types plated to form the mct-spheroids and media for tumor cell growth. After thawing, all PDC lines, except 997537-175-T-J1-PDC and 415267-285-R-J2-PDC, were cultured in Matrigel-coated flasks prepared with a working solution of 1X Ham's F-12 nutrient mix, without supplementation (Thermo Fisher Scientific, cat. 11765054), 100 U/mL penicillin-streptomycin (Thermo Fisher Scientific, cat. 15140122), and 2.5% Matrigel (Corning Inc., Corning, NY, cat. 354248) for the first three passages. The two PDC lines 997537-175-T-J1-PDC and 415267-285-R-J2-PDC were cultured on uncoated flasks. The 857933-349-R-J2-PDC line was cultured in 6C/Colon 1B media containing advanced DMEM/F-12 (Thermo Fisher Scientific, cat. 12634028), 10 mM HEPES (Thermo Fisher Scientific, cat. 15630080), 1X GlutaMAX supplement (Thermo Fisher Scientific, cat. 35050061), 0.1 mg/mL primocin (InvivoGen, San Diego, CA, cat. ant-pm-2), 10% defined fetal bovine serum, heat inactivated (HyClone Laboratories Inc., Logan, UT, cat. SH30070.03HI), 50% L-WRN conditioned media (ATCC, cat. CRL-3276), 1.25 mM N-Acetyl-L-cysteine (Sigma-Aldrich, cat. A9165), 10 mM nicotinamide (Sigma-Aldrich, cat. N0636), 1X B-27 supplement (Thermo Fisher Scientific, cat. 17504044), 1X N-2 supplement (Thermo Fisher Scientific, cat. […]
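Also: spheroids exposed to compounds for 7 days before viability readout.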
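For viability, T/C in this document: luminescence signal used as surrogate for viable cell content; 100% = DMSO vehicle control viability.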

C#Cc1c(F)ccc2cc(O)cc(-c3ncc4c(N5CC6CCC(C5)N6)nc(OCC56CCCN5CC(F)C6)nc4c3F)c12 (configuration not stated) + COC1C(OC(N)=O)C(O)C(Oc2ccc3c(O)c(NC(=O)c4ccc(O)c(CC=C(C)C)c4)c(=O)oc3c2C)OC1(C)C
IC50 (second compound 0.0316 µM): > 10 µM
IC50 (second compound 0.1 µM): > 10 µM
IC50 (second compound 0.316 µM): > 10 µM
IC50 (second compound 1 µM): > 10 µM
IC50 (second compound 3.16 µM): > 10 µM
IC50 (second compound 10 µM): > 10 µM
viability, T/C (second compound 0.0316 µM, first compound 0.0316 µM): 97.7%
viability, T/C (second compound 0.0316 µM, first compound 0.1 µM): 92.7%
viability, T/C (second compound 0.0316 µM, first compound 0.316 µM): 95.1%
viability, T/C (second compound 0.0316 µM, first compound 1 µM): 83.9%
viability, T/C (second compound 0.0316 µM, first compound 3.16 µM): 86.5%
viability, T/C (second compound 0.0316 µM, first compound 10 µM): 89.6%
viability, T/C (second compound 0.1 µM, first compound 0.0316 µM): 102%
viability, T/C (second compound 0.1 µM, first compound 0.1 µM): 97.7%
viability, T/C (second compound 0.1 µM, first compound 0.316 µM): 99%
viability, T/C (second compound 0.1 µM, first compound 1 µM): 75.7%
viability, T/C (second compound 0.1 µM, first compound 3.16 µM): 79.6%
viability, T/C (second compound 0.1 µM, first compound 10 µM): 82.7%
viability, T/C (second compound 0.316 µM, first compound 0.0316 µM): 98%
viability, T/C (second compound 0.316 µM, first compound 0.1 µM): 85.7%
viability, T/C (second compound 0.316 µM, first compound 0.316 µM): 82.1%
viability, T/C (second compound 0.316 µM, first compound 1 µM): 77.8%
viability, T/C (second compound 0.316 µM, first compound 3.16 µM): 86.5%
viability, T/C (second compound 0.316 µM, first compound 10 µM): 80.4%
viability, T/C (second compound 1 µM, first compound 0.0316 µM): 94.4%
viability, T/C (second compound 1 µM, first compound 0.1 µM): 97.1%
viability, T/C (second compound 1 µM, first compound 0.316 µM): 99.7%
viability, T/C (second compound 1 µM, first compound 1 µM): 76%
viability, T/C (second compound 1 µM, first compound 3.16 µM): 82.2%
viability, T/C (second compound 1 µM, first compound 10 µM): 88.3%
viability, T/C (second compound 3.16 µM, first compound 0.0316 µM): 92.5%
viability, T/C (second compound 3.16 µM, first compound 0.1 µM): 92.9%
viability, T/C (second compound 3.16 µM, first compound 0.316 µM): 83.4%
viability, T/C (second compound 3.16 µM, first compound 1 µM): 79.3%
viability, T/C (second compound 3.16 µM, first compound 3.16 µM): 86.4%
viability, T/C (second compound 3.16 µM, first compound 10 µM): 84%
viability, T/C (second compound 10 µM, first compound 0.0316 µM): 86.2%
viability, T/C (second compound 10 µM, first compound 0.1 µM): 95.5%
viability, T/C (second compound 10 µM, first compound 0.316 µM): 82.1%
viability, T/C (second compound 10 µM, first compound 1 µM): 86.3%
viability, T/C (second compound 10 µM, first compound 3.16 µM): 86.9%
viability, T/C (second compound 10 µM, first compound 10 µM): 82.1%
